Laboratory results published in patent US20250127813A1, “COMBINATION DRUG” (OTSUKA PHARMACEUTICAL CO., LTD., priority 2021, published 2025).
Entries after “also recorded” stand apart in the source; their conditions may differ.

Tested on: NALM6-luc2
Description: 6-week-old NOG mice produced by In-Vivo Science Co., Ltd., were obtained, and tumor cells were intravenously transplanted into the mice at 7 weeks of age to prepare tumor-bearing mice. The day before the transplantation, busulfex (BSF) was intraperitoneally administered at 20 mg/kg. During the breeding period, the mice were housed with 5 mice per group and bred in a P2A breeding room set to a temperature of 24° C. (actual measurement: 19.7 to 25.0° C.), humidity of 50% (actual measurement: 38.6 to 58.5%), and illumination of 12 hours/day (8:00 a.m. to 8:00 p.m.). During the breeding period, the mice were allowed free access to radiation-sterilized solid feed for mice (CL-2, produced by Clea Japan, Inc.) and autoclave-sterilized tap water placed in a water bottle.
CD19 CAR-T cells were intravenously administered once according to the group constitution on the same day as grouping. The IAP antagonist also started to be administered on the same day as grouping and was orally or intravenously administered according to the group constitution table.
The evaluation period was set to 3 to 4 weeks. Grouping and pharmacological evaluation were performed based on tumor luminescence values as determined by IVIS (trademark). Luminescence value measurement by IVIS (trademark) and body weight measurement were performed twice a week.
For NALM6-luc2, after resuspension, a portion of the cell suspension was taken, dead cells were stained with AOPI Staining Solution, and the number of viable cells was counted with a blood cell measuring device. A cell suspension was prepared by diluting the cells with RPMI 1640 to 1×10^7 cells/mL, based on the measurement results of viable cell count of the cells. Similarly, in a low tumor volume system, a cell suspension was prepared by diluting the cells with serum-free RPMI 1640 to achieve a concentration of 1×10^6 cells/mL.
After the mice were retained using a retainer, a cell suspension was transplanted at 1×10^6 cells/0.1 mL/body using a 27G Myjector (1 mL, produced by Terumo Corporation) to the tail vein of each mouse with no anesthesia. In the low tumor volume system, a cell suspension at 1×10^5 cells/0.1 mL/body was transplanted.
In accordance with the dosing regimen shown in FIG. 6, NALM6-luc2 was transplanted the day after treating the […] with busulfex. On the third day after the transplantation, luminescence values were measured using the IVIS (trademark) Lumina X5 In-Vivo imaging system (produced by PerkinElmer, Co., Ltd.). Using the luminous values as an indicator and using SAS software R9.4 (produced by SAS Institute Japan), the mice were divided into groups of 5 mice each by the stratified random sampling method.
1) A suspension of CD19 CAR-T cells was administered to the tail vein at the time of grouping. For the dosage, the number of viable CD19 CAR-T cells was counted and a cell suspension prepared according to the group constitution table was administered once at 0.1 mL/body. For the administration, a Myjector syringe with a 27G needle was used.
5) Birinapant was intraperitoneally administered at a dose of 10 mL/kg according to the group composition table. Tolinapant, LCL161, and AT406 were orally administered at a dose of 10 mL/kg according to the group composition table using a sonde in the same manner. For intraperitoneal administration, an insulin syringe with a 26G needle was used in place of the sonde. For oral administration, a needle was used in place of the sonde to administer each drug.
VivoGlo™-luciferin (produced by Promega) was dissolved in D-PBS(−) to achieve a concentration of 30 mg/mL and then cryopreserved at −20° C. under light-shielded conditions. On the day of measurement, dissolved VivoGlo™-luciferin was diluted with an equivalent amount of D-PBS(−) and stored at room temperature under light-shielded conditions until use for testing. Based on the body weight measured in advance, VivoGlo™-luciferin was intraperitoneally administered in a volume of 10 mL/kg.

[1] = LCL161 30 mg/kg qw po + CD19 CAR-T 1×10^5 cells/body iv

SMILES: CN[C@@H](C)C(=O)N[C@H]1CN(C(=O)CC(C)C)CC[C@H]2CC[C@@H](C(=O)NC(c3ccccc3)c3ccccc3)N2C1=O [AT406, reference compound]
- effect of AT406 + 1×10^5 cells CD19 CAR-T compared with 1×10^6 cells CD19 CAR-T alone (AT406 100 mg/kg qd po + CD19 CAR-T 1×10^5 cells/body iv): an effect equivalent to the effect achieved by 1×10^6 cells of CD19 CAR-T alone was observed on day 14 and thereafter
- combination effect of AT406 and CD19 CAR-T (AT406 100 mg/kg qd po + CD19 CAR-T 1×10^5 cells/body iv, 100 mg/kg): a combination effect was observed on day 10 and thereafter; also recorded: showed a combination effect with CD19 CAR-T; also recorded: a combination effect profile similar to that of tolinapant
- efficacy of AT406 administered alone (AT406 alone, 100 mg/kg, daily oral administration): showed no efficacy

SMILES: CC[C@H](NC(=O)[C@H](C)NC)C(=O)N1C[C@@H](O)C[C@H]1Cc1c(-c2[nH]c3cc(F)ccc3c2C[C@@H]2C[C@H](O)CN2C(=O)[C@H](CC)NC(=O)[C@H](C)NC)[nH]c2cc(F)ccc12 [Birinapant, reference compound]
- combination effect of birinapant and CD19 CAR-T compared to CD19 CAR-T alone (birinapant 12 mg/kg q3-4d ip + CD19 CAR-T 1×10^5 cells/body iv): did not increase antitumor effects
- efficacy of birinapant administered alone (birinapant alone, 12 mg/kg, intraperitoneal administration twice a week): showed no efficacy

SMILES: CN[C@@H](C)C(=O)N[C@H](C(=O)N1CCC[C@H]1c1nc(C(=O)c2ccc(F)cc2)cs1)C1CCCCC1 [LCL161, reference compound]
- death of mice under LCL161 alone (LCL161 30 mg/kg orally twice a week): at least half of the mice died
- effect of LCL161 + 1×10^5 cells CD19 CAR-T compared with 1×10^6 cells CD19 CAR-T alone [1]: an effect equivalent to the effect achieved by using 1×10^6 cells of CD19 CAR-T alone was observed on day 14 and thereafter
- highest efficacy of combined use of LCL161 compared with combined use of tolinapant [1]: lower than the efficacy achieved by the combined use of tolinapant
- combination effect of LCL161 and CD19 CAR-T (LCL161 30 mg/kg qw po + CD19 CAR-T 1×10^5 cells/body iv, 30 mg/kg): a significant combination effect was observed on day 7 and thereafter; also recorded: showed a combination effect with CD19 CAR-T
- toxicity of LCL161 (death, weight loss) in the combination test (LCL161 30 mg/kg qw po, combination test with CD19 CAR-T, 30 mg/kg): highly toxic; also recorded: at least half of the animals died due to LCL161; also recorded: showed such toxicity as to confirm weight loss and death
- efficacy of LCL161 administered alone (LCL161 alone, 30 mg/kg orally twice a week): no effects were exhibited
